Measured values from patent US20090298786A1, “METHODS OF TREATING VIRAL INFECTIONS WITH ANTHRACYCLINE ANTIBIOTICS” (priority 2007, published 2009).
Like-named read-outs stand apart in the source and are kept apart here.

Assays:
[1] = test system: subgenomic HCV genotype 1 (con 1) replicon; assay: Antiviral activity, subgenomic HCV replicon luciferase test in Huh-7 cells; assay type: cell-based, hepatitis C virus
Experimental: Studies on inhibition of HCV replication, using human liver cancer cell line (Huh7) carrying a subgenomic HCV replicon of genotype 1 (con1) with a reporter/selection fusion protein luc-ubi-neo, were also carried out.
In order to examine antiviral activity and to determine therapeutic index of exemplary anthracycline antibiotics, subgenomic replicon of hepatitis C virus was used, which is a modified genome of HCV lacking structural genes. The replicon was a non-infective form of the virus, and therefore is safe to work with and makes it easier for high-throughput screening of potential inhibitors of its replication.
Additional simplification was the use of reporter protein—luciferase, whose activity (i.e., luminescence generated by it after addition of substrate) was proportional to the amount of the protein expressed, which allowed determination of HCV RNA replication level and its inhibition by virus replication inhibitors.
The human hepatoma cell line Huh-7 and the plasmid pFK-luc-ubi-neo/NS3-3′/Con1/5.1 carrying the subgenomic HCV genotype 1 (con 1) replicon with the luc-ubi-neo reporter/selective fusion protein (Vrolijk J. M. et al., J. Virol. Methods 110: 201-209, 2003), used in the experiments, were provided by Dr. Ralf Bartenschlager (Department of Molecular Virology, University of Heidelberg, Heidelberg). Huh-7 clones carrying persistently-replicating subgenomic HCV replicons were obtained using the following modification of the protocol described by Lohman V. et al. (J. Virol. 75:1437-1449, 2001).
(§1) Huh-7 cells were grown in minimal essential medium (Dulbecco's Modified Minimal Essential Medium, DMEM; Invitrogen) with high glucose concentration (4.5 g/L) supplemented with 2 mM L-glutamine and 1 μM non-essential amino acids, such as: glycine, L-alanine, L-asparagine, L-aspartic acid, L-glutamic acid, L-proline and L-serine, and also with 100 U/mL penicilin, 100 μg/mL streptomycin, and 10% fetal bovine serum (FBS, Sigma). In cultures of cells bearing the subgenomic HCV replicon 250 μg/mL of aminoglycoside antibiotics G418 (Geneticin; Invitrogen) was added to the medium. Cells were grown at 37° C. (5% CO2) and were passaged twice per week, diluted 7 to 10 times, according to the protocol described in Vrolijk J. M. et al., J. Virol. Methods 110:201-209, 2003.
(§2) The Huh-7 cells carrying replicons were cultivated with the following concentrations of anthracycline antibiotics: 5 to 200 nM for 4 days to determine their influence on HCV RNA replication and 5 to 5000 nM for 3 days to determine cytotoxicity. The medium with 1% DMSO was used as a control.
Conditions of the antiviral activity test of antracycline antibiotics were based on the protocol described by Paeshuyse J. et al. (Biochem. Biophys. Res. Commun. 348: 139-144, 2006). A logarithmic culture of HCV replicon-carrying cells was diluted in complete DMEM medium supplemented with 250 μg/ml G418 to the concentration of 5-7×10^3 cells per mL and aliquoted into 96-well white microtitration plate with optical bottom (Nunc) (100 μL per well). After 24 h at 37° C. the medium was removed and dilution of inhibitors in the range of 5 to 200 nM was added in 100 μL of fresh DMEM medium without G418. Huh-7 cells with 1% DMSO were used as a control. After 4 days at 37° C., the medium was removed and 40 μL of mixture of Glo Lysis buffer and Bright-Glo luciferase assay system (Promega) was added to each well. After 2 mins of incubation luminescence was measured with a Synergy HTi (Biotek) device. The experiment was repeated at least three times with three repetitions for each inhibitor concentration.

[2] = Cytotoxicity (MTT) in HCV replicon-carrying Huh-7 cells; settings: human, Huh-7 cells carrying subgenomic HCV replicon
Experimental: as §1, §2
(§3) When determining cytotoxicity, as in the antiviral test, logarithmic culture of HCV replicon-carrying cells was diluted in complete DMEM medium supplemented with 250 μg/mL G418 to the concentration of 5−7×10^3 cells per mL and aliquoted into 96-well mictotitration cell culture plate (100 μL per well). After 24 h at 37° C. medium was removed and inhibitors were added at concentrations of 5 to 5000 nM in 100 μL of fresh DMEM medium without G418. After 3 days at 37° C., the medium was removed and 100 μL of fresh DMEM medium with 0.5 mg/mL of MTT (tetrazolium bromide, Sigma) was added to each well. After 3 to 4 hours of incubation at 37° C., the medium with MTT was removed and 100 μL of 0.04 N HCl solution in absolute isopropanol was added to solubilize the precipitated dye. Dye absorbance was measured at 570 nm, while absorbance of the background was measured at 650 nm using Synergy HTi (Biotek). The experiment was repeated at least 3 times with 3 repetitions for each inhibitor concentration.

helicase = settings: Borowski P. et al., Antiviral Res. 55, 397-412, 2002; read-out: IC50 (antihelicase activity); cited from earlier work
[3] = test system: Huh-7 cells carrying replicons; assay: Cytotoxicity (MTT) in HCV replicon-carrying Huh-7 cells; settings: Huh-7 replicon cells, 3 days, MTT, cell growth inhibited by 50%
Experimental: as §1, §2, §3

[4] = target: T1, HCV helicase (helicase domain of NS3 protein) (UniProt P27958); assay: Fluorometric (FRET) antihelicase activity assay; assay type: biochemical, hepatitis C virus (HCV); settings: concentration inhibiting 50% of helicase activity; 10 nM enzyme pre-incubated 15 min with derivative, unwinding at 30° C. for 60 min; read-out: IC50
T1 construct: The helicase domain of NS3 protein was expressed in a baculovirus system in HF insect cell line; fused on or other part: Histidine tag, inferred from the Talon cobalt column purification ('histidine repetitions')
T1 sequence (P27958 1027-1657): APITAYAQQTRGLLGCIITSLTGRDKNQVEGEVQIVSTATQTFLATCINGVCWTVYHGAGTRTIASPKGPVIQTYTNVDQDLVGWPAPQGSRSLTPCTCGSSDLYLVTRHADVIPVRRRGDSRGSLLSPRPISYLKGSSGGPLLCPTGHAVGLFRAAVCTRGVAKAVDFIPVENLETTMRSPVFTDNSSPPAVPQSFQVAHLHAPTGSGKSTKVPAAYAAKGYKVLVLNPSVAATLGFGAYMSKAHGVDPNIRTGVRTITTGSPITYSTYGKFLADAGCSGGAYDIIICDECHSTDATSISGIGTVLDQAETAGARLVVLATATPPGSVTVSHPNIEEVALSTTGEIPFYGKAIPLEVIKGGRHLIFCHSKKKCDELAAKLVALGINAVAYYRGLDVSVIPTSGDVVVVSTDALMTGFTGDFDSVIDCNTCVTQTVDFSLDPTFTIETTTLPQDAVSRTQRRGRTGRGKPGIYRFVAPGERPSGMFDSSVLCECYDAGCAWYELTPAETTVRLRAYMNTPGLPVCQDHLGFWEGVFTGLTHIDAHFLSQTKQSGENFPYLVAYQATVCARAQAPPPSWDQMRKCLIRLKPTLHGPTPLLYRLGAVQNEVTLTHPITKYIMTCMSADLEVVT
From the text: A reaction takes place on a 96- or 384-well microtitration plate and a course of the reaction is observed in real time.
The helicase domain of NS3 protein was expressed in a baculovirus system in HF insect cell line.
In this assay, FAM fluorescence is quenched by fluorescence energy transfer (FRET) to the BHQ molecule, while unwinding of double-stranded DNA structure leads to decrease of FRET phenomenon and increase of FAM fluorescence signal. The assay allows for examining a large number of samples, i.e., different helicase inhibitors at various concentrations and with many repetitions, in standardized conditions. The reaction is conducted in a microtitration plate. The reaction process is observed in real time.
The enzyme (10 nM) was pre-incubated with the tested derivatives dissolved in DMSO (0.005 to 20 μM concentration) without ATP for 15 min at room temperature. The reaction of DNA unwinding was started by addition of ATP and was carried out at 30° C. for 60 min in a Synergy HTi (Biotek) fluorometer. […] Fluorescence was measured every 2 mins.
The enzyme activity was calculated as the initial reaction velocity from the linear part of reaction curve (fluorescence growth as a function of time) using a linear regression method. Inhibition was calculated as comparison of activity of the helicase incubated with inhibitor to activity of the helicase incubated without inhibitor, but with a proper concentration of DMSO, expressed in percent.

[5] = Hepatitis C virus, Huh-7, 96 h, Huh-7 replicon cells, 4 days, luminescence reduced by 50%
[6] = Huh-7 replicon cells, 4 days, luminescence reduced by 50%, read-out: EC50

`NC(=O)c1ncn([C@@H]2O[C@H](CO)[C@@H](O)[C@H]2O)n1` [ribavirin, reference compound] showed an EC50 ([1]; Hepatitis C virus, Huh-7, ribavirin, comparison drug) of 120000 nM.

For `COc1cccc2c1C(=O)c1c(O)c3c(c(O)c1C2=O)C[C@@](O)(C(=O)CO)C[C@@H]3O[C@H]1C[C@H](N)[C@H](O)[C@H](C)O1` [Doxorubicin, reference compound], the CC50 at 3 days [2] is given as 332 nM, the IC50 (helicase) is given as 5000 nM and the EC50 [1, 5] is given as 31.2 nM. For the same compound, the EC50 ([1]; Huh-7 replicon cells, 4 days, luminescence reduced by 50%) was 42.9 nM.

For `COC(=O)[C@@H]1c2cc3c(c(O)c2[C@@H](O[C@@H]2O[C@@H](C)[C@H](OC)[C@@](C)(OC)[C@H]2OC)C[C@]1(C)O)C(=O)c1c(O)cc2c(c1C3=O)O[C@@H]1O[C@@]2(C)[C@H](O)[C@@H](N(C)C)[C@@H]1O` [nogalamycin], the IC50 (helicase) is given as 100 nM.

With `COc1cccc2c1C(=O)c1c(O)c3c(c(O)c1C2=O)CC(O)(C(=O)CO)CC3OC1CC(N=C(C)N2CCOCC2)C(O)C(C)O1` (stereo not drawn) [Derivative 54] the CC50 [3] was 4280 nM, the EC50 [1, 6] was 129 nM and the IC50 [4] was 510 nM.

For `COc1cccc2c1C(=O)c1c(O)c3c(c(O)c1C2=O)CC(O)(C(C)=O)CC3OC1CC(N=CN2CCCCCC2)C(O)C(C)O1.Cl` (stereo not drawn) [Derivative 75], the CC50 [3] was 47.9 nM, the “activity (EC50) fold higher than that of epidoxorubicin, doxorubicin, epidaunorubicin, or daunorubicin” value ([1]; HCV replicon) was 4 fold and the EC50 [1, 6] was 8.4 nM. For the same compound, the IC50 [4] was 2330 nM.

For `O=C1c2c(O)ccc(O)c2C(=O)c2c(NCCNCCO)ccc(NCCNCCO)c21` [mitoxantrone], the IC50 (helicase) is listed as 6700 nM.

In the case of `COc1cccc2c1C(=O)c1c(O)c3c(c(O)c1C2=O)C[C@@](O)(C(C)=O)C[C@@H]3O[C@H]1C[C@H](N)[C@H](O)[C@H](C)O1` [Daunorubicin, reference compound], the IC50 (helicase) is given as 57000 nM, the EC50 [1, 5] is given as 31.2 nM and the IC50 [4] is given as 6050 nM.

Work on `COc1cccc2c1C(=O)c1c(O)c3c(c(O)c1C2=O)CC(O)(C(=O)CO)CC3OC1CC(N=C(C)N2CCc3ccccc32)C(O)C(C)O1` (stereo not drawn) [Derivative 133] yielded a CC50 [3] of 1570 nM, an EC50 [1, 6] of 138 nM and an IC50 [4] of 380 nM.

With `COc1cccc2c1C(=O)c1c(O)c3c(c(O)c1C2=O)CC(O)(C(=O)CO)CC3OC1CC(N=C(C)N2CCOCC2)C(O)C(C)O1` (stereo not drawn) [Derivative 125] the CC50 [3] was 909 nM, the EC50 [1, 6] was 114 nM and the IC50 [4] was 290 nM.

In the case of `COc1cccc2c1C(=O)c1c(O)c3c(c(O)c1C2=O)C[C@@](O)(C(=O)CO)C[C@@H]3O[C@H]1C[C@H](N)[C@@H](O)[C@H](C)O1` [Epidoxorubicin, reference compound], the CC50 at 3 days [2] is listed as 675 nM and the IC50 (helicase) is listed as 750 nM.

Work on `COc1cccc2c1C(=O)c1c(O)c3c(c(O)c1C2=O)C[C@@](O)(C(C)=O)C[C@@H]3O[C@H]1C[C@H](N)[C@@H](O)[C@H](C)O1` [Epidaunorubicin, reference compound] yielded an EC50 [1, 6] of 31.2 nM and an IC50 [4] of 3730 nM.

In the case of `COc1cccc2c1C(=O)c1c(O)c3c(c(O)c1C2=O)CC(O)(C(C)=O)CC3OC1CC(N=C(C)N2CCN(C)CC2)C(O)C(C)O1` (stereo not drawn) [Derivative 94], the CC50 at 3 days [2] is reported as 1090 nM, the EC50 [1, 5] is reported as 56.9 nM and the IC50 [4] is reported as 80 ± 20 nM.
